Assays:
male Sprague Dawley rats = assay: Echocardiography in DOX-treated rats (cardiac function test); assay type: in vivo, rat
Experimental: (§1) In a first set of experiments, male Sprague Dawley rats were divided into the following four treatment groups: (1) PBS control; (2) MitoQ (5 mg/kg, i.p., twice per week); (3) DOX (2.5 mg/kg, i.v.); and (4) DOX plus MitoQ (2.5 mg/kg DOX and 5 mg/kg MitoQ, both i.p.). All agents were administered in PBS for ten weeks. At weeks four, eight, ten and twelve, cardiac function tests were performed. Following the treatments, the rats were sacrificed and hearts were removed for histochemical and biochemical analysis. See FIG. 8 for treatment protocol
In a second set of experiments, a different mitochondria-target antioxidant was assessed, Mito-TEMPOL. Male Sprague Dawley rats were divided into the following four treatment groups: (1) PBS control; (2) Mito-TEMPOL (5 mg/kg, i.p., twice per week); (3) DOX (2.5 mg/kg, i.v.); and (4) DOX plus Mito-TEMPOL (2.5 mg/kg and 5 mg/kg Mito-TEMPOL, both i.p.). All agents were administered in PBS for ten weeks. At weeks four, eight, ten and twelve, cardiac function tests were performed. Following treatment, the rats were sacrificed and hearts were removed for histochemical and biochemical analysis.
Cardiac Function Test: Echocardiography was performed at baseline, four, eight, ten and twelve weeks following the start of treatment. Rats were anesthetized with a mixture of ketamine (75 mg/kg) and medotomidine (0.25 mg/kg). Once anesthetized, the chest was shaved and cardiac rhythm monitored using three limb leads attached to a Vivid 7 from General Electric (Waukesha, Wis.) and a M12L linear array probe.
2-D B mode imaging parameters were as follows: (1) depth, 2.5 cm.; (2) frame rate, 230 frames/second; and (3) second harmonic imaging. For the primary endpoint data, the standard short axis view at the mid-ventricular level were used. Because of the serial nature of comparative measurements, co-registration at this level was ensured by the use of papillary muscles as localizers and obtaining a circular left ventricular slice. Other standard views obtained induced short axis apical slices and short axis basal slices at the mitral valve. […] In addition, Q analysis software (General Electric) of the B mode echo images was used to measure regional radial and circumferential strain. Furthermore, diastolic function was monitored by using pulsed Doppler of the mitral inflow and aortic outflow regions in a standard apical four chamber/five chamber view, as was mitral E wave, A wave, isovolumic relaxation time and mitral E deceleration time.

caspase-3 = assay: Caspase-3 activity in heart tissues of DOX-treated rats; assay type: in vivo, rat; conditions: DOX treatment
Experimental: Caspase-3 Activity: Caspase-3 activity was measured with acetyl Asp-Glu-Val-Asp 7-amido-4-methlylcoumarin (Ac-DEVD-AFC), as described in a kit from Sigma Aldrich (St. Louis, Mo.). Caspase-3 hydrolyzes Ac-DEVD-AFC to release a fluorescent moiety, 7-amino-4-methylcoumarin (AMC). Briefly, treated cells were suspended in 100 μl of lysis buffer and passed through a 24-gauge needle 10 times to ensure complete lysis. The resulting lysate was centrifuged at 4° C. at 10,000 rmp. 50 μl of clear supernatant was used for the activity assay. […] The excitation and emission wavelengths of AMC are 360 nm and 460 nm respectively.
as §1
Caspase-3 was determined as described above in Example 3.

laboratory animals = conditions: in vivo; cited from earlier work
[1] = system: tumor cell lines (LnCAP, MCF-7, SH-SY5Y and MDA-MB-231); assay: MTT assay, toxicity in tumor cell lines; assay type: cell-based, human; conditions: 10 μM, MCF-7 and SH-SY5Y
From the text: In contrast, four tumor cell lines were used herein. The first tumor cell line was a human neuroblastoma cell line, SH-SY5Y, from American Type Culture Collection (ATCC; Rockville, Md.). The second tumor cell line was a human prostate cancer cell line, LnCAP, from ATCC. The third tumor cell line was a human breast cancer cell line, MCF-7, from ATCC. The fourth tumor cell line was a human metastatic breast cancer cell line, MDA-MB-231 from ATCC.
(§2) In a first set of experiments, a dose-response curve to MitoQ was measured in each of the six cell lines described above. Briefly, cells were treated with various concentrations of MitoQ for twenty-four hours. Following treatment, cellular toxicity was measured by a MTT assay as described below.
In a third set of experiments, each of the six cell lines described above were subjected to the following treatments: (1) 10 μM MitoQ; (2) 10 μM CoQ (MitoQ without the phosphonium, which served as a control); and (3) 10 μM triphenylphosphonium (TPP; MitoQ without the ubiquinone or the ubquinol moiety, which also served as a control). Following treatment, cellular toxicity was measured by the MTT assay. […]

[2] = system: isolated cardiomyocytes and isolated hearts; conditions: cited from earlier work
[3] = system: bovine aortic endothelial cells (BAEC); assay: MTT assay, toxicity in normal cells BAEC; assay type: cell-based; conditions: 10 μM; BAECs
Experimental: (§3) Cell lines: Two normal cell lines were used herein. The first normal cell line was a rat-derived embryonic cardiomyocyte cell line, H9c2, from […] (Manassas, Va.; Catalog No. CRL-1446). The second normal cell line was BAECs from Clonetics Corp. (San Diego, Calif.).
as §2
(§4) In a third set of experiments, each of the six cell lines described above were subjected to the following treatments: (1) 10 μM MitoQ; (2) 10 μM CoQ (MitoQ without the phosphonium, which served as a control); and (3) 10 μM triphenylphosphonium (TPP; MitoQ without the ubiquinone or the ubquinol moiety, which also served as a control). Following treatment, cellular toxicity was measured by the MTT assay.
(§5) MTT Assay: An MIT assay was performed to examine MitoQ's toxicity on normal cells and tumor cells (see Mosmann T, “Rapid colorimetric assay for cellular growth and survival: Application to proliferation and cytotoxicity assays,” J. Immunol. Meth. 65:55-63 (1983)). […] Formazon crystals formed cells were solubilized by adding 200 μl of 0.1N HCl in isopropanol, and absorbance was measured at 570 nm.

H9c2 cells = assay: MTT assay, toxicity in normal cells H9c2; assay type: cell-based, rat; conditions: 10 μM
Experimental: as §3, §2, §4, §5

COc1cccc2c1C(=O)c1c(O)c3c(c(O)c1C2=O)C[C@@](O)(C(=O)CO)C[C@@H]3O[C@H]1C[C@H](N)[C@H](O)[C@H](C)O1 [DOX, doxorubicin]
decrease of fractional shortening versus control (male Sprague Dawley rats; DOX 2.5 mg/kg, rats): 18%
decrease of radial strain versus control (male Sprague Dawley rats; DOX 2.5 mg/kg, rats): 35%
caspase activity in heart tissues (caspase-3): increased with increasing DOX treatment

CC(=O)N[C@@H](CS)C(=O)O [N-acetylcysteine]
efficacy against DOX cardiotoxicity in animals (laboratory animals): limited efficacy

Cc1c(C)c2c(c(C)c1O)CC[C@@](C)(CCC[C@H](C)CCC[C@H](C)CCCC(C)C)O2 [α-tocopherol]
efficacy against DOX cardiotoxicity in animals (laboratory animals): limited efficacy

coenzyme Q [CoQ]
DOX-induced cardiomyopathy (echocardiograms, FIG. 9A) (male Sprague Dawley rats; after 12 weeks of DOX treatment): not
protection of left ventricular function and fractional shortening against DOX cardiotoxicity (male Sprague Dawley rats; co-administered with DOX, echocardiography): did not significantly protect
toxicity (MTT), FIG. 4 [1]: not toxic
effect on DOX-induced toxicity [2]: reversed DOX-induced toxicity
efficacy against DOX cardiotoxicity in animals (laboratory animals): not as effective

triphenylphosphonium [TPP, reference compound]
toxicity (MTT), FIG. 4 [1]: not toxic
toxicity (MTT), FIG. 4 [3]: not toxic
toxicity (MTT), FIG. 4 (H9c2 cells): not toxic
